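Growth conditions: 96-well plates. Treatment: test compound, 48 hours, 5 concentrations. Analysis: linear interpolation between bracketing concentrations; unreached endpoints set to highest concentration. GI50: concentration for 50% inhibition of growth.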 Active and inactive are the calls of the source. Rule as the data show it: active = GI50 up to about 1.1 µM and inactive = higher.
Tests used:
Test in all cases: NCI anticancer screen, dose series, 48 h
ACHN = tested on: ACHN
CAKI-1 = tested on: CAKI-1
CCRF-CEM = tested on: CCRF-CEM
EKVX = tested on: EKVX
HCC 2998 = tested on: HCC 2998
HOP-62 = tested on: HOP-62
M14 = tested on: M14
NCI-H522 = tested on: NCI-H522
OVCAR-8 = tested on: OVCAR-8
RPMI-8226 = tested on: RPMI-8226
SF-268 = tested on: SF-268
SK-OV-3 = tested on: SK-OV-3
SN12C = tested on: SN12C
SNB-19 = tested on: SNB-19
U-251 = tested on: U-251
UACC-257 = tested on: UACC-257
DU-145 = tested on: DU-145
MDA-MB-231 = tested on: MDA-MB-231
NCI/ADR-RES = tested on: NCI/ADR-RES

| SMILES | GI50 (ACHN) | GI50 (CAKI-1) | GI50 (CCRF-CEM) | GI50 (EKVX) | GI50 (HCC 2998) | GI50 (HOP-62) | GI50 (M14) | GI50 (NCI-H522) | GI50 (OVCAR-8) | GI50 (RPMI-8226) | GI50 (SF-268) | GI50 (SK-OV-3) | GI50 (SN12C) | GI50 (SNB-19) | GI50 (U-251) | GI50 (UACC-257) | GI50 (DU-145) | GI50 (MDA-MB-231) | GI50 (NCI/ADR-RES) |
| --- | --- | --- | --- | --- | --- | --- | --- | --- | --- | --- | --- | --- | --- | --- | --- | --- | --- | --- | --- |
| COc1cc2c(cc1OC)C(=O)Cc1ccc3c(c1CNCC2)OCO3 | > 100 µM (inactive) | > 100 µM (inactive) | > 100 µM (inactive) | > 100 µM (inactive) | > 100 µM (inactive) | > 100 µM (inactive) | > 100 µM (inactive) | > 100 µM (inactive) | > 100 µM (inactive) | > 100 µM (inactive) | > 100 µM (inactive) | > 100 µM (inactive) | > 100 µM (inactive) | > 100 µM (inactive) | > 100 µM (inactive) | > 100 µM (inactive) | – | – | – |
| O=C(/C=C/c1c(O)ccc2ccccc12)c1cccc2ccccc12 | > 100 µM (inactive) | > 100 µM (inactive) | 23.7 µM (inactive) | > 100 µM (inactive) | > 100 µM (inactive) | > 100 µM (inactive) | > 100 µM (inactive) | 27.5 µM (inactive) | > 100 µM (inactive) | 42.1 µM (inactive) | > 100 µM (inactive) | > 100 µM (inactive) | > 100 µM (inactive) | > 89.5 µM (inactive) | > 71.9 µM (inactive) | > 100 µM (inactive) | – | – | – |
| CC1=C[C@]2(O)C(=O)[C@H](C)C[C@H]3[C@@H](CC[C@@](C)(O)/C=C\2C1=O)C3(C)C | 22.4 µM (inactive) | 25.4 µM (inactive) | 24.8 µM (inactive) | 70.5 µM (inactive) | 30.3 µM (inactive) | > 49.8 µM (inactive) | 17.3 µM (inactive) | 13.7 µM (inactive) | 20.5 µM (inactive) | > 41.9 µM (inactive) | 20.7 µM (inactive) | > 56.8 µM (inactive) | 20.3 µM (inactive) | 60.7 µM (inactive) | 21.7 µM (inactive) | 17.4 µM (inactive) | – | – | – |
| NC(=O)C(=O)c1ncn(Cc2ccccc2)c1N | > 100 µM (inactive) | > 100 µM (inactive) | > 100 µM (inactive) | > 100 µM (inactive) | > 100 µM (inactive) | > 100 µM (inactive) | > 100 µM (inactive) | > 100 µM (inactive) | > 100 µM (inactive) | > 100 µM (inactive) | > 100 µM (inactive) | > 100 µM (inactive) | > 100 µM (inactive) | > 100 µM (inactive) | > 100 µM (inactive) | > 100 µM (inactive) | > 100 µM (inactive) | > 100 µM (inactive) | > 100 µM (inactive) |
| COc1cccc2c1C(=O)c1c(O)c3c(c(O)c1C2=O)C[C@@](O)(C(C)=O)CC3S(=O)(=O)O (some centres undefined) | > 100 µM (inactive) | > 100 µM (inactive) | > 100 µM (inactive) | > 100 µM (inactive) | > 100 µM (inactive) | > 100 µM (inactive) | > 100 µM (inactive) | > 100 µM (inactive) | > 100 µM (inactive) | > 100 µM (inactive) | > 100 µM (inactive) | > 100 µM (inactive) | > 100 µM (inactive) | > 100 µM (inactive) | > 100 µM (inactive) | > 100 µM (inactive) | – | – | – |
| CN(C)c1ccc(/C=C/C(=O)C(C)(C)C)cc1Br | 31.5 µM (inactive) | 23.9 µM (inactive) | 24.6 µM (inactive) | 44.4 µM (inactive) | 27.4 µM (inactive) | 63.5 µM (inactive) | 18.9 µM (inactive) | 16.1 µM (inactive) | 21.8 µM (inactive) | 19.5 µM (inactive) | 20.3 µM (inactive) | 52.1 µM (inactive) | 24.9 µM (inactive) | 31.6 µM (inactive) | 27.4 µM (inactive) | 24 µM (inactive) | – | – | – |
| CC(C)[C@@H](C)CC[C@@H](C)C1CC=C2[C@@H]3CCC4C[C@@H](O[Si](C)(C)C(C)(C)C)CC[C@]4(C)C3CC[C@@]21C (some centres undefined) | > 100 µM (inactive) | > 100 µM (inactive) | > 100 µM (inactive) | > 100 µM (inactive) | > 100 µM (inactive) | > 100 µM (inactive) | > 100 µM (inactive) | > 100 µM (inactive) | > 100 µM (inactive) | > 100 µM (inactive) | > 100 µM (inactive) | > 100 µM (inactive) | > 100 µM (inactive) | > 100 µM (inactive) | > 100 µM (inactive) | > 100 µM (inactive) | – | – | – |
| NNC(=O)/C(NC(=O)c1ccccc1)=C(\N)c1cccc([N+](=O)[O-])c1 | > 100 µM (inactive) | > 100 µM (inactive) | > 100 µM (inactive) | > 100 µM (inactive) | > 100 µM (inactive) | > 100 µM (inactive) | > 100 µM (inactive) | > 100 µM (inactive) | > 100 µM (inactive) | > 100 µM (inactive) | > 100 µM (inactive) | > 100 µM (inactive) | > 100 µM (inactive) | > 100 µM (inactive) | > 100 µM (inactive) | > 100 µM (inactive) | – | – | – |
| COc1ccc(C(=O)Oc2c(C#N)sc3c2c(=O)n(-c2ccccc2)c(=S)n3-c2ccccc2)cc1 | 40.7 µM (inactive) | 22.3 µM (inactive) | 15.1 µM (inactive) | 12.9 µM (inactive) | 27.9 µM (inactive) | 24.7 µM (inactive) | 20.3 µM (inactive) | 0.131 µM (active) | 24.7 µM (inactive) | 25.2 µM (inactive) | 34.2 µM (inactive) | 33.9 µM (inactive) | 23.5 µM (inactive) | 33.2 µM (inactive) | 25.8 µM (inactive) | 47.5 µM (inactive) | 33 µM (inactive) | 31.3 µM (inactive) | 20.6 µM (inactive) |
| CC(C)C1=CC23CCC4C(C)(C(=O)O)CCCC4(C)C2CC1C1C(=O)N(CCCCCCN2C(=O)C4C5CC6C7(C)CCCC(C)(C(=O)O)C7CCC6(C=C5C(C)C)C4C2=O)C(=O)C13 (centres undefined) | 10.9 µM (inactive) | – | 7.29 µM (inactive) | 7.4 µM (inactive) | 12.7 µM (inactive) | > 10 µM (inactive) | 11 µM (inactive) | 12 µM (inactive) | 9.2 µM (inactive) | 13.7 µM (inactive) | 13.4 µM (inactive) | – | 14 µM (inactive) | 10.5 µM (inactive) | 4.08 µM (inactive) | – | > 10 µM (inactive) | 15.3 µM (inactive) | – |
| CC1(C)Oc2ccc3c(=O)cc(-c4ccc(F)cc4)oc3c2C1C(=O)O (centres undefined) | – | 23.3 µM (inactive) | > 100 µM (inactive) | > 100 µM (inactive) | > 100 µM (inactive) | > 100 µM (inactive) | > 100 µM (inactive) | > 100 µM (inactive) | > 100 µM (inactive) | – | > 100 µM (inactive) | > 100 µM (inactive) | > 100 µM (inactive) | – | > 100 µM (inactive) | > 100 µM (inactive) | > 100 µM (inactive) | > 100 µM (inactive) | > 100 µM (inactive) |
| N#CC1(C#N)C(C#N)(C#N)C12CCCCCC2 | 11.1 µM (inactive) | 12.2 µM (inactive) | 1.85 µM (inactive) | 17.3 µM (inactive) | 19.6 µM (inactive) | > 52.8 µM (inactive) | 2.81 µM (inactive) | 2.77 µM (inactive) | 13.2 µM (inactive) | 3.28 µM (inactive) | 22.5 µM (inactive) | > 64.4 µM (inactive) | 18.1 µM (inactive) | 29.4 µM (inactive) | 14.1 µM (inactive) | 13.9 µM (inactive) | – | – | – |
| CC1=C(C(=O)Nc2cccc(Cl)c2)C(c2ccccc2F)C(C(=O)Nc2cccc(Cl)c2)=C(C)N1 | 9.98 µM (inactive) | 4.99 µM (inactive) | 4.61 µM (inactive) | 6.22 µM (inactive) | 7.57 µM (inactive) | 15.8 µM (inactive) | 5.33 µM (inactive) | 9.16 µM (inactive) | 17 µM (inactive) | 2.77 µM (inactive) | 11.8 µM (inactive) | 21.5 µM (inactive) | 11 µM (inactive) | 19.2 µM (inactive) | 12.6 µM (inactive) | 10.2 µM (inactive) | – | – | – |
| CC1(C)OCC(C2OC3OC(C)(C)OC3C2c2ccccc2)O1 (centres undefined) | 51.9 µM (inactive) | – | 30.5 µM (inactive) | 49 µM (inactive) | > 100 µM (inactive) | 49 µM (inactive) | 33.7 µM (inactive) | 37.7 µM (inactive) | 43 µM (inactive) | 48.8 µM (inactive) | 38.4 µM (inactive) | > 100 µM (inactive) | 26.7 µM (inactive) | 71.8 µM (inactive) | 78 µM (inactive) | 36.1 µM (inactive) | 45.6 µM (inactive) | 55 µM (inactive) | 31.1 µM (inactive) |
| O=C1CSC(c2ccccc2O)N1c1ccc2c(c1)Oc1c(Cl)c3c(c(Cl)c1=N2)Oc1cc(N2C(=O)CSC2c2ccccc2O)ccc1N=3 (centres undefined) | 24.5 µM (inactive) | > 100 µM (inactive) | 18.1 µM (inactive) | > 100 µM (inactive) | 53.3 µM (inactive) | 28.6 µM (inactive) | 48.6 µM (inactive) | 20.6 µM (inactive) | 29.4 µM (inactive) | 23.7 µM (inactive) | 32.7 µM (inactive) | 25.8 µM (inactive) | – | – | 24.9 µM (inactive) | 81.1 µM (inactive) | 42.4 µM (inactive) | 28.9 µM (inactive) | > 100 µM (inactive) |
| CC1=CCC2(C#N)CCC1C2O (centres undefined) | > 100 µM (inactive) | > 100 µM (inactive) | > 100 µM (inactive) | > 100 µM (inactive) | > 100 µM (inactive) | > 100 µM (inactive) | > 100 µM (inactive) | > 100 µM (inactive) | > 100 µM (inactive) | > 100 µM (inactive) | > 100 µM (inactive) | > 100 µM (inactive) | > 100 µM (inactive) | > 100 µM (inactive) | > 100 µM (inactive) | > 100 µM (inactive) | – | – | – |
